In PMC11741003 (ACS Chemical Neuroscience, 2024):
Residues, ends and D or L forms follow the SMILES beside them.

Assays:
[1] = system: rat brain microvascular endothelial cells (RBMECs); assay: Peptide recovery (HPLC) from apical and basal compartments of the BBB in vitro model; settings: peptide alone, apical administration; quantified after 8 and 25 h; HPLC-UV
[2] = target: PrP(92–99) (Homo sapiens, UniProt P04156); settings: pH 7.4
[3] = system: Aβ(1–16); settings: 1 equiv of TP; EPR; cited from earlier work
Source text: Although Aβ(1–X) species are the most studied, N-truncated Aβ peptides, such as Aβ(4–X) species (Figure 4A), are highly abundant Aβ isoforms detected in both healthy and AD brains.[58]−[60] Although both peptides bind Cu^2+, their coordination properties and reactivities are completely different.

[4] = target: PrP(106–115) (Homo sapiens, UniProt P04156); settings: pH 7.4
[5] = target: T1, Aβ(1–40) (Homo sapiens, UniProt P05067); settings: cited from earlier work
T1 construct: impact the mechanism of Cu^2+-induced aggregation of Aβ(1–40)
Source text: Scheme 1 TP Holds Therapeutic Potential against AD TP is a tetrapeptide with the sequence MDDWAib. The MD sequence binds Cu^2+ with high affinity (A). […] These findings support a therapeu ...

[6] = system: rat brain microvascular endothelial cells (RBMECs)
[7] = system: rat brain microvascular endothelial cells (RBMECs); assay: Transendothelial electrical resistance (TEER) in the BBB in vitro model; assay type: cell-based; settings: RBMEC monolayers
[8] = BBB in vitro model: primary culture of rat brain microvascular endothelial cells (RBMECs) on inserts, astrocyte-conditioned medium in the basal compartment; settings: Wistar rat, up to 25 h

T1 sequence (P05067 672-711 limits assumed): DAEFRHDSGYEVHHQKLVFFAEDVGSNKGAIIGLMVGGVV

## NH2-MDDWAib-Am [TP]
[1]
  Detection in apical and basal compartments: detected in the apical but not in the basal compartment
[2]; 1 equiv of TP
  Fraction of Cu2+-PrP(92–99) complex in EPR deconvolution: 40%
  Fraction of Cu2+-TP complex in EPR deconvolution: 30%
  Fraction of ternary TP-Cu2+-PrP(92–99) complex in EPR deconvolution: 30%
[2]; 2 equiv of TP
  Fraction of Cu2+-TP in EPR simulation: 20%
  Fraction of ternary TP-Cu2+-PrP(92–99) complex in EPR simulation: 80%
[3]
  Removal of Cu2+ from Cu2+-Aβ(1–16): removes the metal ion
[4]; 1 equiv of TP
  Fraction of Cu2+-PrP(106–115) complex in EPR deconvolution: 30%
  Fraction of Cu2+-TP complex in EPR deconvolution: 50%
  Fraction of ternary TP-Cu2+-PrP(106–115) complex in EPR deconvolution: 20%
[4]; 2 equiv of TP
  Fraction of Cu2+-TP in EPR simulation: 40%
  Fraction of ternary TP-Cu2+-PrP(106–115) complex in EPR simulation: 60%
[5]
  Effect on Cu2+-induced aggregation of Aβ(1–40): impacts the Cu^2+-induced aggregation of Aβ(1–40)
[6]
  Main degradation product in the BBB model: DDWAib
  TP degradation in the BBB model: rapidly degraded
  TP passage across the BBB model: cannot cross the BBB without P10
[7]; TP alone
  Effect on TEER: no effect

## NH2-MDDWAib-Am
[8]
  cleaved bond: Met1-Asp2, major, 3.5 h

## CC(C)C[C@H](NC(=O)[C@@H](N)CCCCN)C(=O)N[C@@H](Cc1ccc(O)cc1)C(=O)O [P10] (H-Lys-Leu-Tyr-OH)
[7]; P10 alone, CellZscope continuous measurement
  Decrease of TEER with respect to control monolayers: approximately 30%
[7]; P10 together with TP
  Decrease of TEER with respect to control monolayers: approximately 30%
